Results reported in patent US20230303570A1, “KINASE INHIBITORS AND USES THEREOF” (ABM Therapeutics Corporation, priority 2020, published 2023).

Key:
[1] = biological target: T1, SRC (Homo sapiens, UniProt P12931); test: In vitro kinase assay, SRC (Caliper EZ Reader conversion); assay type: biochemical; conditions: read-out: SRC IC50
T1 construct: purchased Carna Biosciences
Method: (§1) The effect of the compounds on the activity of SRC and PAK1 kinase were assessed. SRC and PAK1 kinase enzymes were obtained from Carna Biosciences.
Test compounds were dissolved in 100% DMSO to prepare a 20 mM stock. Compounds were stored in −20° C. and protected from light. […] Saracatinib was used as a positive control for the SRC assay, and FRAX597 was used as a positive control for the PAK1 assay. For the positive controls, a 3-fold serial dilution was made to achieve a total of 10 concentrations. 10 μL 1× Kinase buffer was used as the negative control.
First, 250 nL of the compounds at each dilution were transferred into wells of a 384-well plate. […] Then, 10 μL of enzyme mix was added to the 384-well plate, and the enzymes and compounds were pre-incubated at room temperature for 10 minutes. […] Then, 15 μL of substrate mix was added to a 384-well plate and reacted at room temperature for 30 min and 60 min. The reaction was stopped by adding 30 μL of the stop buffer, and the conversion rate was read using a Caliper EZ Reader.
(§2) Percent inhibition is calculated according to the following equation: […]
(§3) wherein “Conversion %_sample” is the conversion percentage value of the sample; “Conversion %_min” is the average conversion percentage value of the negative control; and “Conversion %_max” is the average conversion percentage value of the positive control.
(§4) The dose-response curve was fitted using GraphPad Prism software (version 5, […]), and the IC50 values for each compounds were calculated by log(inhibitor) vs. response using a variable slope program with the following formula:
(§5) Y=Bottom+(Top-Bottom)/(1+10^((Log IC50−X)*HillSlope))

[2] = biological target: PAK1 (Homo sapiens, UniProt Q13153); test: In vitro kinase assay, PAK1 (Caliper EZ Reader conversion); assay type: biochemical; set-up: purchased Carna Biosciences
Method: as §1
Test compounds were dissolved in 100% DMSO to prepare a 20 mM stock. Compounds were stored in −20° C. and protected from light. A 100×solution of the compounds were prepared, from which 4-fold serial dilutions was made to achieve a total of 6 concentrations. Saracatinib was used as a positive control for the SRC assay, and FRAX597 was used as a positive control for the PAK1 assay. For the positive controls, a 3-fold serial dilution was made to achieve a total of 10 concentrations. 10 μL 1× Kinase buffer was used as the negative control.
First, 250 nL of the compounds at each dilution were transferred into wells of a 384-well plate. The PAK1 and SRC kinases were diluted to a 2.5×final concentration with 1×Kinase buffer. Then, 10 μL of enzyme mix was added to the 384-well plate, and the enzymes and compounds were pre-incubated at room temperature for 10 minutes. […] Then, 15 μL of substrate mix was added to a 384-well plate and reacted at room temperature for 30 min and 60 min. The reaction was stopped by adding 30 μL of the stop buffer, and the conversion rate was read using a Caliper EZ Reader.
as §2, §3, §4, §5

[3] = Mouse pharmacokinetics study (intravenous and oral); assay type: in vivo; conditions: mouse, plasma; CD-1 mice, PO 25 mg/kg
Excerpt: The test articles were formulated in […] Hydroxypropyl-beta-cyclodextrin, either as a clear solution or fine suspension.

Sequence of PAK1 (Q13153 whole entry): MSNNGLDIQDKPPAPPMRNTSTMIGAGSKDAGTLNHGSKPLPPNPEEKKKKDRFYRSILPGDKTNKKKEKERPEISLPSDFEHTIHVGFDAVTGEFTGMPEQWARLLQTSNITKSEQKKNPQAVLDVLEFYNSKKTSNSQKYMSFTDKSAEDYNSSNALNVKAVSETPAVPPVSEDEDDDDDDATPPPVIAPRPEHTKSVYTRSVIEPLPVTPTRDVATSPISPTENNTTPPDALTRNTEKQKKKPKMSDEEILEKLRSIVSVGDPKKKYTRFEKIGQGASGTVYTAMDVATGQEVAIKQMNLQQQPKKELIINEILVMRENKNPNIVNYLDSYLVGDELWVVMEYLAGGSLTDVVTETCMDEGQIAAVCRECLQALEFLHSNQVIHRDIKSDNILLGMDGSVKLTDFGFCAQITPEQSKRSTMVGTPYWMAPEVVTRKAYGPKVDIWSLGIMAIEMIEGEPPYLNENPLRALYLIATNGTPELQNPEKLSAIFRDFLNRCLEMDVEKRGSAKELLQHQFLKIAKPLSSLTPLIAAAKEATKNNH
T1 sequence (P12931 whole entry): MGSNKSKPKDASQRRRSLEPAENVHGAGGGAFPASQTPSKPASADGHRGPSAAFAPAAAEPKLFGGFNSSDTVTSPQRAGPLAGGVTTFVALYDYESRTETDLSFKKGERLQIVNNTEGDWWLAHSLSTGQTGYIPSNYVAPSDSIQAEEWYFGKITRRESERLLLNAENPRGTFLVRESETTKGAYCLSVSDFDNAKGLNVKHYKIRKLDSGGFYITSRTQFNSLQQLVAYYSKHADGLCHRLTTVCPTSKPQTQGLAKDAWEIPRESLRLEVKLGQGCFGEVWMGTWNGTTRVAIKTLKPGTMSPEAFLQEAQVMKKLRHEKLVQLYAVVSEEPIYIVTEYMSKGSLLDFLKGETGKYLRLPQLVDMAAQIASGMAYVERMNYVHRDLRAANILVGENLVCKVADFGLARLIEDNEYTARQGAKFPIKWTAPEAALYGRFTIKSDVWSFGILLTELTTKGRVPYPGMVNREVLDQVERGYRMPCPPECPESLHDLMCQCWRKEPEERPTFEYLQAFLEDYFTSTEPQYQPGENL

Row | Structure (SMILES) | IC50 [1] [µM] | IC50 [2] [µM] | AUC [3] [µg·h/mL] | Cmax [3] [µg/mL] | Tmax [3] [h]
1 | COc1nc(N2CCNCC2)ccc1Nc1ncc2c(n1)N1CCN=C1C(c1ccccn1)=C2 [Compound 39, N-(2-methoxy-6-(piperazin-1-yl)pyridin-3-yl)-6-(pyridin-2-yl)-8,9-dihydroimidazo[1′,2′:1,6]pyrido[2,3-d]pyrimidin-2-amine] | > 10 | > 10 | – | – | –
2 | COc1nc(N2CCNCC2)ccc1Nc1ncc2c(n1)N1CCN=C1C(C#Cc1cccnc1)=C2 [Compound 40, N-(2-methoxy-6-(piperazin-1-yl)pyridin-3-yl)-6-(pyridin-3-ylethynyl)-8,9-dihydroimidazo[1′,2′:1,6]pyrido[2,3-d]pyrimidin-2-amine] | > 10 | > 10 | – | – | –
3 | COc1nc(N2CCNCC2)ccc1Nc1ncc2c(n1)N1CCN=C1C(c1ccc(-n3ccnc(C)c3=O)cc1)=C2 [Compound 42, 1-(4-(2-((2-methoxy-6-(piperazin-1-yl)pyridin-3-yl)amino)-8,9-dihydroimidazo[1′,2′:1,6]pyrido[2,3-d]pyrimidin-6-yl)phenyl)-3-methylpyrazin-2(1H)-one] | > 10 | > 10 | – | – | –
4 | C1=C(c2ccncc2)C2=NCCN2c2nc(Nc3ccncc3)ncc21 [Compound 45, N,6-di(pyridin-4-yl)-8,9-dihydroimidazo[1′,2′:1,6]pyrido[2,3-d]pyrimidin-2-amine] | > 10 | > 10 | – | – | –
5 | Clc1cnccc1C1=Cc2cnc(Nc3ccncc3)nc2N2CCN=C12 [Compound 46, 6-(3-chloropyridin-4-yl)-N-(pyridin-4-yl)-8,9-dihydroimidazo[1′,2′:1,6]pyrido[2,3-d]pyrimidin-2-amine] | > 10 | > 10 | – | – | –
6 | Clc1cccc(Cl)c1C1=Cc2cnc(N3CCNCC3)nc2N2CCN=C12 [Compound 50, 6-(2,6-dichlorophenyl)-2-(piperazin-1-yl)-8,9-dihydroimidazo[1′,2′:1,6]pyrido[2,3-d]pyrimidine] | > 10 | > 10 | – | – | –
7 | Fc1ccccc1Nc1ncc2c(n1)N1CCCN=C1C(c1cccc3[nH]ccc13)=C2 [Compound 57, N-(2-fluorophenyl)-6-(1H-indol-4-yl)-9,10-dihydro-8H-pyrido[1,6-a:2,3-d′]dipyrimidin-2-amine] | > 10 | > 10 | – | – | –
8 | CNc1ncc2c(n1)N1CCCN=C1C(c1ccc(-n3ccnc(C)c3=O)cc1)=C2 [Compound 64, 3-methyl-1-(4-(2-(methylamino)-9,10-dihydro-8H-pyrido[1,6-a:2,3-d′]dipyrimidin-6-yl)phenyl)pyrazin-2(1H)-one] | > 10 | > 10 | – | – | –
9 | CNc1ncc2c(n1)N1CCCN=C1C(c1ccc(N3CCN(C)C3=O)cc1Cl)=C2 [Compound 71, 1-(3-chloro-4-(2-(methylamino)-9,10-dihydro-8H-pyrido[1,6-a:2,3-d′]dipyrimidin-6-yl)phenyl)-3-methylimidazolidin-2-one] | > 10 | > 10 | – | – | –
10 | CNc1ncc2c(n1)N1CCCN=C1C(c1ccc(-n3cccc(C)c3=O)cc1Cl)=C2 [Compound 72, 1-(3-chloro-4-(2-(methylamino)-9,10-dihydro-8H-pyrido[1,6-a:2,3-d′]dipyrimidin-6-yl)phenyl)-3-methylpyridin-2(1H)-one] | > 10 | 0.1 to 10 | – | – | –
11 | CNc1ncc2c(n1)N1CCCN=C1C(c1ccc(-n3ccnc(C)c3=O)cc1Cl)=C2 [Compound 73, 1-(3-chloro-4-(2-(methylamino)-9,10-dihydro-8H-pyrido[1,6-a:2,3-d′]dipyrimidin-6-yl)phenyl)-3-methylpyrazin-2(1H)-one] | > 10 | > 10 | – | – | –
12 | Cc1ccc(NC(=O)c2cc(C(C)(C)C#N)ccn2)cc1C1=Cc2cnc(Nc3cnn(C)c3)nc2N2CCN=C12 [Compound 199, 4-(2-cyanopropan-2-yl)-N-(4-methyl-3-(2-((1-methyl-1H-pyrazol-4-yl)amino)-8,9-dihydroimidazo[1′,2′:1,6]pyrido[2,3-d]pyrimidin-6-yl)phenyl)picolinamide] | – | – | 1.73 ± 0.619 | 0.245 ± 0.037 | 2

Other lines, results leading:

Row | IC50 [1] [µM] | IC50 [2] [µM] | AUC [3] [µg·h/mL] | Cmax [3] [µg/mL] | Tmax [3] [h] | Structure (SMILES)
13 | 0.1 to 10 | > 10 | – | – | – | COc1nc(N2CCNCC2)ccc1Nc1ncc2c(n1)N1CCN=C1C(c1ccc(Cl)cc1)=C2 [Compound 36, 6-(4-chlorophenyl)-N-(2-methoxy-6-(piperazin-1-yl)pyridin-3-yl)-8,9-dihydroimidazo[1′,2′:1,6]pyrido[2,3-d]pyrimidin-2-amine]
14 | 0.1 to 10 | > 10 | – | – | – | C1=C(c2ccccc2)C2=NCCN2c2nc(Nc3ccncc3)ncc21 [Compound 43, 6-phenyl-N-(pyridin-4-yl)-8,9-dihydroimidazo[1′,2′:1,6]pyrido[2,3-d]pyrimidin-2-amine]
15 | 0.1 to 10 | > 10 | – | – | – | C1=C(c2ccccn2)C2=NCCN2c2nc(Nc3ccncc3)ncc21 [Compound 44, 6-(pyridin-2-yl)-N-(pyridin-4-yl)-8,9-dihydroimidazo[1′,2′:1,6]pyrido[2,3-d]pyrimidin-2-amine]
16 | 0.1 to 10 | > 10 | – | – | – | Clc1ccc(C2=Cc3cnc(Nc4ccncc4)nc3N3CCN=C23)c(Cl)c1 [Compound 47, 6-(2,4-dichlorophenyl)-N-(pyridin-4-yl)-8,9-dihydroimidazo[1′,2′:1,6]pyrido[2,3-d]pyrimidin-2-amine]
17 | 0.1 to 10 | > 10 | – | – | – | CN1CCN(CCNc2ncc3c(n2)N2CCN=C2C(c2c(Cl)cccc2Cl)=C3)CC1 [Compound 48, 6-(2,6-dichlorophenyl)-N-(2-(4-methylpiperazin-1-yl)ethyl)-8,9-dihydroimidazo[1′,2′:1,6]pyrido[2,3-d]pyrimidin-2-amine]
18 | 0.1 to 10 | > 10 | – | – | – | Clc1cccc(Cl)c1C1=Cc2cnc(NCCC3CCNCC3)nc2N2CCN=C12 [Compound 49, 6-(2,6-dichlorophenyl)-N-(2-(piperidin-4-yl)ethyl)-8,9-dihydroimidazo[1′,2′:1,6]pyrido[2,3-d]pyrimidin-2-amine]
19 | < 0.1 | > 10 | – | – | – | Clc1cccc(Cl)c1C1=Cc2cnc(Nc3ccncc3)nc2N2CCN=C12 [Compound 52, 6-(2,6-dichlorophenyl)-N-(pyridin-4-yl)-8,9-dihydroimidazo[1′,2′:1,6]pyrido[2,3-d]pyrimidin-2-amine]
20 | 0.1 to 10 | > 10 | – | – | – | Fc1ccccc1Nc1ncc2c(n1)N1CCCN=C1C(c1cccc3[nH]ncc13)=C2 [Compound 58, N-(2-fluorophenyl)-6-(1H-indazol-4-yl)-9,10-dihydro-8H-pyrido[1,6-a:2,3-d′]dipyrimidin-2-amine]
21 | 0.1 to 10 | > 10 | – | – | – | Fc1cc(N2CCNCC2)ccc1Nc1ncc2c(n1)N1CCCN=C1C(c1ccc(Cl)cc1Cl)=C2 [Compound 68, 6-(2,4-dichlorophenyl)-N-(2-fluoro-4-(piperazin-1-yl)phenyl)-9,10-dihydro-8H-pyrido[1,6-a:2,3-d′]dipyrimidin-2-amine]
22 | < 0.1 | 0.1 to 10 | – | – | – | Fc1cc(Nc2ncc3c(n2)N2CCCN=C2C(c2ccc(Cl)cc2Cl)=C3)ccc1N1CCNCC1 [Compound 69, 6-(2,4-dichlorophenyl)-N-(3-fluoro-4-(piperazin-1-yl)phenyl)-9,10-dihydro-8H-pyrido[1,6-a:2,3-d′]dipyrimidin-2-amine]
23 | 0.1 to 10 | > 10 | – | – | – | COc1nc(N2CCNCC2)ccc1Nc1ncc2c(n1)N1CCCN=C1C(c1ccc(Cl)cc1Cl)=C2 [Compound 70, 6-(2,4-dichlorophenyl)-N-(2-methoxy-6-(piperazin-1-yl)pyridin-3-yl)-9,10-dihydro-8H-pyrido[1,6-a:2,3-d′]dipyrimidin-2-amine]
24 | < 0.1 | > 10 | – | – | – | Cc1ccc(NC(=O)c2cccc(C(F)(F)F)c2)cc1C1=Cc2cnc(N)nc2N2CCCN=C12 [Compound 75, N-(3-(2-amino-9,10-dihydro-8H-pyrido[1,6-a:2,3-d′]dipyrimidin-6-yl)-4-methylphenyl)-3-(trifluoromethyl)benzamide]
